Molecules are shown by their SMILES.

One assay deals with MV4:11 human cancer cell lines. In words: Cellular viability / anti-proliferative assay, CellTiter-Glo, 5 day protocol. It is filed as cell-based. As to conditions: Homo sapiens, MV4-11, 120 h, MV4:11 cells; 5 day incubation; CellTiter-Glo; mean of at least two replicates; read-out: GI50 on cellular proliferation of MV4:11 human cancer cell lines. As to the method:
Cellular Viability of Human Tumor Cell Lines
Anti-proliferative activity using MLL-harboring cell lines. MV-4-11 and K562 cells are grown in IMDM media supplemented with 10% FBS and 1% penicillin/streptomycin, Molm-13 cells are cultured in RPMI-1640 media supplemented with 10% FBS and 1% penicillin/streptomycin. Viability assays are performed by dispensing 200 cells at 7200 cells/mL into each well of an opaque 384-well plate and adding compounds at the indicated concentrations in a final volume, of 32 μL. and a final concentration of DMSO of 0.3% for all samples. A certain range of compound concentrations is made through a series of 2-fold dilutions starting 30 μM at the highest, total 22 dilutions. After a set incubation period, 5 day protocol, the viability of cells in each well is assessed using the CellTiter-Glo assay (Promega), read on a 96 Microplane Luminometer (Cytation 3, BioTek). Serial dilutions of each cell type are performed in all assays to generate standard curves and the final densities of cells are determined within the dynamic range of the instrument. GI50 values are calculated based on XLfit software (IDBS, Guildford, UK) with Sigmoidal Dose-Response Model. Each compound is tested in minimum of two replicates. Data are expressed as mean.
Consider `CCc1cc(C2CCN(C)CC2)c2nc(C)cc(N3CCc4c(cc(Cn5ccnc5)cc4-c4cn(C)nc4C(F)(F)F)C3=O)c2c1` [Example 148, 7-((1H-Imidazol-1-yl)methyl)-2-(6-ethyl-2-methyl-8-(1-methylpiperidin-4-yl)quinolin-4-yl)-5-(1-methyl-3-(trifluoromethyl)-1H-pyrazol-4-yl)-3,4-dihydroisoquinolin-1(2H)-one], for which the GI50 is < 20 nM.
Still for that read-out and setting: in the case of `COc1cc(C2=CCN(C)CC2)c2nc(C)cc(N3CCc4c(cc(Cn5ccnc5)cc4-c4cn(C)nc4C(F)(F)F)C3=O)c2c1` [Example 154, 7-((1H-Imidazol-1-yl)methyl)-2(6-methoxy-2-methyl-8-(1-methyl-1,2,3,6-tetrahydropyridin-4-yl)quinolin-4-yl)-5-(1-methyl-3-(trifluoromethyl)-1H-pyrazol-4-yl)-3,4-dihydroisoquinolin-1(2H)-one] it was 33 nM; in that of `CCc1cc(C(=O)Nc2nccn2C)c2nccc(N3CCc4c(cc(Cn5ccnc5)cc4-c4cn(C)nc4C(F)(F)F)C3=O)c2c1` [Example 161, 4-(7-((1H-Imidazol-1-yl)methyl)-5-(1-methyl-3-(trifluoromethyl)-1H-pyrazol-4-yl)-1-oxo-3,4-dihydroisoquinolin-2(1H)-yl)-6-ethyl-N-(1-methyl-1H-imidazol-2-yl)quinoline-8-carboxamide], 59 nM.
Turning to `CCOC(=O)c1cc(CC)cc2c(N3CCc4c(cc(Cn5ccnc5)cc4-c4cn(C)nc4C(F)(F)F)C3=O)cc(C)nc12` [Example 162, ethyl 4-(7-((1H-imidazol-1-yl)methyl)-5-(1-methyl-3-(trifluoromethyl)-1H-pyrazol-4-yl)-1-oxo-3,4-dihydroisoquinolin-2(1H)-yl)-6-ethyl-2-methylquinoline-8-carboxylate], the GI50 turned out to be 88 nM.
Regarding `CCc1cc(C(=O)NCc2ccncc2)c2nccc(N3CCc4c(cc(Cn5ccnc5)cc4-c4cn(C)nc4C(F)(F)F)C3=O)c2c1` [Example 163, 4-(7-((1H-Imidazol-1-yl)methyl)-5-(1-methyl-3-(trifluoromethyl)-1H-pyrazol-4-yl)-1-oxo-3,4-dihydroisoquinolin-2(1H)-yl)-6-ethyl-N-(pyridin-4-ylmethyl)quinoline-8-carboxamide], the GI50 worked out at 56 nM.
Same read-out and setting: in the case of `CCc1cc(C(=O)NC2CCCC2)c2nccc(N3CCc4c(cc(Cn5ccnc5)cc4-c4cn(C)nc4C(F)(F)F)C3=O)c2c1` [Example 164, 4-(7-((1H-Imidazol-1-yl)methyl)-5-(1-methyl-3-(trifluoromethyl)-1H-pyrazol-4-yl)-1-oxo-3,4-dihydroisoquinolin-2(1)-yl)-N-cyclopentyl-6-ethylquinoline-8-carboxamide] it was 155 nM; in that of `CCc1cc(C(=O)NCCO)c2nccc(N3CCc4c(cc(Cn5ccnc5)cc4-c4cn(C)nc4C(F)(F)F)C3=O)c2c1` [Example 168, 4-(7-((1H-Imidazol-1-yl)methyl)-5-(1-methyl-3-(trifluoromethyl)-1H-pyrazol-4-yl)-1-oxo-3,4-dihydroisoquinolin-2(1H)-yl)-6-ethyl-N-(2-hydroxyethyl)quinoline-8-carboxamide], 46 nM; in that of `CCc1cc(C(=O)NCC2CCCC2)c2nccc(N3CCc4c(cc(Cn5ccnc5)cc4-c4cn(C)nc4C(F)(F)F)C3=O)c2c1` [Example 170, 4-(7-((1H-Imidazol-1-yl)methyl)-5-(1-methyl-3-(trifluoromethyl)-1H-pyrazol-4-yl)-1-oxo-3,4-dihydroisoquinolin-2(1H)-yl)-N-(cyclopentylmethyl)-6-ethylquinoline-8-carboxamide], 212 nM.
In the case of `CCc1cc(C(=O)NC)c2nc(C)cc(N3CCc4c(cc(Cn5ccnc5)cc4-c4cn(C)nc4C(F)(F)F)C3=O)c2c1` [Example 178], the GI50 was < 20 nM.
Regarding `COc1cc(-c2n[nH]c(=O)o2)c2nc(C)cc(N3CCc4c(cc(Cn5ccnc5)cc4-c4cn(C)nc4C(F)(F)F)C3=O)c2c1` [Example 180, 5-(4-(7-((1H-Imidazol-1-yl)methyl)-5-(1-methyl-3-(trifluoromethyl)-1H-pyrazol-4-yl)-1-oxo-3,4-dihydroisoquinolin-2(1H)-yl)-6-methoxy-2-methylquinolin-8-yl)-1,3,4-oxadiazol-2(3-1)-one], the GI50 amounted to 68 nM.
Take `CCc1cc(OC)c2nccc(N3CCc4c(cc(Cn5ccnc5)cc4-c4cccnc4C(F)(F)F)C3=O)c2c1` [Example 185, 7-((1H-Imidazol-1-yl)methyl)-2-(6-ethyl-8-methoxyquinolin-4-yl)-5-(2-(trifluoromethyl)pyridin-3-yl)-3,4-dihydroisoquinolin-1(2H)-one]: the GI50 amounted to 55 nM.
On to `COc1cc(N2CCC(NC(C)=O)CC2)c2nc(C)cc(N3CCc4c(cc(Cn5ccnc5)cc4-c4cn(C)nc4C(F)(F)F)C3=O)c2c1` [Example 192, N-(1-(4-(7-((1H-Imidazol-1-yl)methyl)-5-(1-methyl-3-(trifluoromethyl)-1H-pyrazol-4-yl)-1-oxo-3,4-dihydroisoquinolin-2(1H)-yl)-6-methoxy-2-methylquinolin-8-yl)piperidin-4-yl)acetamide], for which the GI50 is < 20 nM.
Turning to `CCc1cc(C(=O)NC2CCN(C)C2)c2nccc(N3CCc4c(cc(Cn5ccnc5)cc4-c4cn(C)nc4C(F)(F)F)C3=O)c2c1` (stereo not drawn) [Example 193, 4-(7-((1H-Imidazol-1-yl)methyl)-5-(1-methyl-3-(trifluoromethyl)-1H-pyrazol-4-yl)-1-oxo-3,4-dihydroisoquinolin-2(1H)-yl)-6-ethyl-N-(1-methylpyrrolidin-3-yl)quinoline-8-carboxamide], the GI50 was < 20 nM.
`COc1cc(-c2nnn[nH]2)c2nc(C)cc(N3CCc4c(cc(Cn5ccnc5)cc4-c4cn(C)nc4C(F)(F)F)C3=O)c2c1` [Example 196, 7-((1H-Imidazol-1-yl)methyl)-2-(6-methoxy-2-methyl-8-(1H-tetrazol-5-yl)quinolin-4-yl)-5-(1-methyl-3-(trifluoromethyl)-1H-pyrazol-4-yl)-3,4-dihydroisoquinolin-1(2H)-one]: the GI50 was > 10000 nM.
As for `COc1cc(C(N)=O)c2nc(C)cc(N3CCc4c(cc(Cn5ccnc5)cc4-c4cn(C)nc4C(F)(F)F)C3=O)c2c1` [Example 198, 4-(7-((1H-Imidazol-1-yl)methyl)-5-(1-methyl-3-(trifluoromethyl)-1H-pyrazol-4-yl)-1-oxo-3,4-dihydroisoquinolin-2(1H)-yl)-6-methoxy-2-methylquinoline-8-carboxamide], the GI50 was < 20 nM.
For the compound `CCc1cc(C(=O)NC)c2nccc(N3CCc4c(cc(Cn5ccnc5)cc4-c4cccnc4C(F)(F)F)C3=O)c2c1` [Example 199, 4-(7-((1H-imidazol-1-yl)methyl)-1-oxo-5-(2-(trifluoromethyl)pyridin-3-yl)-3,4-dihydroisoquinolin-2(1H)-yl)-6-ethyl-N-methylquinoline-8-carboxamide], the GI50 was found to be 131 nM.
For `COc1cc(C#N)c2nccc(N3CCc4c(cc(Cn5ccnc5)cc4-c4cn(C)nc4C(F)(F)F)C3=O)c2c1` [Example 205], the GI50 was < 20 nM.
In the case of `CCc1cc(N2CCN(CCOC)CC2)c2nccc(N3CCc4c(cc(Cn5ccnc5)cc4-c4cn(C)nc4C(F)(F)F)C3=O)c2c1` [Example 210], the GI50 was < 20 nM.
For `CCc1cc(N2CCN(C3COC3)CC2)c2nccc(N3CCc4c(cc(Cn5ccnc5)cc4-c4cn(C)nc4C(F)(F)F)C3=O)c2c1` [Example 215, 7-((1H-Imidazol-1-yl)methyl)-2-(6-ethyl-8-(4-(oxetan-3-yl)piperazin-1-yl)quinolin-4-yl)-5-(1-methyl-3-(trifluoromethyl)-1H-pyrazol-4-yl)-3,4-dihydroisoquinolin-1(2H)-one], the GI50 was < 20 nM.
Still for that read-out and setting: in the case of `CCc1cc(C(=O)NC2CN(C(=O)c3ccncc3)C2)c2nccc(N3CCc4c(cc(Cn5ccnc5)cc4-c4cn(C)nc4C(F)(F)F)C3=O)c2c1` [Example 225] it was < 20 nM; in that of `COc1cc(C(=O)NC2CN(C(C)=O)C2)c2nccc(N3CCc4c(cc(Cn5ccnc5)cc4-c4cn(C)nc4C(F)(F)F)C3=O)c2c1` [Example 226, 4-(7-((1H-Imidazol-1-yl)methyl)-5-(1-methyl-3-(trifluoromethyl)-1H-pyrazol-4-yl)-1-oxo-3,4-dihydroisoquinolin-2(1H)-yl)-N-(1-acetylazetidin-3-yl)-6-methoxyquinoline-8-carboxamide], 43 nM.
Turning to `COc1cc(C(=O)NC2CN(C(=O)c3cscn3)C2)c2nccc(N3CCc4c(cc(Cn5ccnc5)cc4-c4cn(C)nc4C(F)(F)F)C3=O)c2c1` [Example 227], the GI50 was < 20 nM.
For `CCc1cc(C(=O)NC2CN(C(C)=O)C2)c2nccc(N3CCc4c(cc(Cn5ccnc5)cc4-c4cn(C)nc4C(F)(F)F)C3=O)c2c1` [Example 241], the GI50 was < 20 nM.

The assay is the same for the next values; noted with them: Homo sapiens, MV4-11, 120 h, read-out: GI50 on cellular proliferation of MV4:11 human cancer cell lines.
For the compound `CCc1cc(C(=O)NCCN(C)C)c2nccc(N3CCc4c(cc(Cn5ccnc5)cc4-c4cn(C)nc4C(F)(F)F)C3=O)c2c1` [Example 166, 4-(7-((1H-Imidazol-1-yl)methyl)-5-(1-methyl-3-(trifluoromethyl)-1H-pyrazol-4-yl)-1-oxo-3,4-dihydroisoquinolin-2(1H)-yl)-N-(2-(dimethylamino)ethyl)-6-ethylquinoline-8-carboxamide], the GI50 was < 20 nM.

These data come from patent US12692249B2, “WDR5 inhibitors and modulators” (Vanderbilt University, priority 2019, dated 2026).
